Key:
[1] = target: Prolactin-releasing peptide receptor PRLHR (Homo sapiens) (UniProt P49683); assay: Displacement of [3H]-PrRP-20 from human PrRP receptor expressed in CHO cells by TopCount scintillation counting method
KiSS-1 receptor = KiSS-1 receptor (Homo sapiens, UniProt Q969F8); assay: Displacement of [125I]-Kp-10 from human Kiss1 receptor by TopCount scintillation counting method
Chain of KiSS-1 receptor (Q969F8 whole entry): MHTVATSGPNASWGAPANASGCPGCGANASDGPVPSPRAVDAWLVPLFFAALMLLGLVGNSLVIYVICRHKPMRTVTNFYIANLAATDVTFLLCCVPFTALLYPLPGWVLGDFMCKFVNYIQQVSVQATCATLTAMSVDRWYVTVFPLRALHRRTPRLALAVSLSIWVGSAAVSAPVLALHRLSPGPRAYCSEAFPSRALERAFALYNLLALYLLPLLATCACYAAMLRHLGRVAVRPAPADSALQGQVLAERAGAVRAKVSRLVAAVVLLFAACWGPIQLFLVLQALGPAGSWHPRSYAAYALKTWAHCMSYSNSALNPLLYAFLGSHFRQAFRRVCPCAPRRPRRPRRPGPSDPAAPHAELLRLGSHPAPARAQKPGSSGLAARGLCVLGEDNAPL

Chain of Prolactin-releasing peptide receptor PRLHR (Homo sapiens) (P49683 whole entry, looked up): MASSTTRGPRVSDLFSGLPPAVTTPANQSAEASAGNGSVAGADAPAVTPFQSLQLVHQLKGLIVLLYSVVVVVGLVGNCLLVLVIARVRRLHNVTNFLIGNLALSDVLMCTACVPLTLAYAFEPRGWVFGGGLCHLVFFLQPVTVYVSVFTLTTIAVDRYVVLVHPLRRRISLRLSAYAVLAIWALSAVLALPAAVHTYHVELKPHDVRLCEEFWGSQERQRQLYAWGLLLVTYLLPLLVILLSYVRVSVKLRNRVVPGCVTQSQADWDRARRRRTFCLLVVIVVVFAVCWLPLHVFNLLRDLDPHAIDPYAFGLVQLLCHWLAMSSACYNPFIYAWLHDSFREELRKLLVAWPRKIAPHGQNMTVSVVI

Row | Ki [1] | Ki (KiSS-1 receptor) | Molecule
1 | > 50000 nM | – | N=C(N)NCCC[C@@H](NC(=O)C=C(c1ccccc1)c1ccccc1)C(=O)N[C@H](Cc1ccccc1)C(N)=O
2 | – | 0.062 nM | CC(C)C[C@H](NC(=O)CNC(=O)[C@H](Cc1ccccc1)NC(=O)[C@H](CO)NC(=O)[C@H](CC(N)=O)NC(=O)[C@H](Cc1c[nH]c2ccccc12)NC(=O)[C@H](CC(N)=O)NC(=O)[C@@H](N)Cc1ccc(O)cc1)C(=O)N[C@@H](CCCNC(=N)N)C(=O)N[C@@H](Cc1ccccc1)C(N)=O [Kisspeptin-10]
3 | 2.1 nM | – | H-TPDINPAWYASRGIRPVGRF-NH2

— BindingDB's records for doi:10.1021/acs.jmedchem.1c00256 (University of Strasbourg, 2021)
